Results: patent US11542304B2, “Multimeric bicyclic peptide ligands” (BicycleTx Limited, priority 2018, dated 2023)
Starred links: 1 amine or outer side, 2 acyl side, 3 side chain; linkers in the order of their positions; H or OH if unused. Positions of bridges follow the written chain, without caps; N, C: chain ends. Non-standard residues stand in square brackets, D forms with d. Chains are numbered I, II in the order given. X3 = O=C(CCOCCN(CCOCCC(=O)NCCOCCOCCOCCOCCOCCOCCOCCOCCOCCOCCn1nnc2c1CCC1C(CC2)C1COC(=O)[*:2])CCOCCC(=O)NCCOCCOCCOCCOCCOCCOCCOCCOCCOCCOCCn1nnc2c1CCC1C(CC2)C1COC(=O)[*:3])NCCOCCOCCOCCOCCOCCOCCOCCOCCOCCOCCn1nnc2c1CCC1C(CC2)C1COC(=O)[*:1]; TATA = O=C(CC[*:1])N1CN(C(=O)CC[*:2])CN(C(=O)CC[*:3])C1; Nle = CCCC[C@H](N)C(=O)O

Molecular target: CD137 (Homo sapiens, UniProt Q07011)
Test: CD137 Promega reporter cell activity assay (NF-κB luciferase in Jurkat cells)
Conditions: for Average Fold EC50 Improvement relative to CD137L: Average EC50 for CD137L = 14.2 nM; for Average Relative Fold Induction relative to CD137L: Average fold induction for CD137L = 4.0
Method: CD137 binding multimers were evaluated for CD137 using a Reporter cell activity assay that uses NF-κB luciferase luminescence as a read-out of CD137 activation in Jurkat cells. […] Samples were diluted at concentration expected to give the maximum fold induction and then titrated down in 1/3 dilution series or 1/10 dilution series in a sterile 96 well-plate. […] 50 μl cells were added per well to white cell culture plates.
Cells were co-incubated together with agonists for 6 h at 37° C., 5% CO2. After 6 h Bio-Glo™ was thawed and the assay developed at room-temperature. 75 ul Bio-Glo™ was added per well and incubated for 5-10 min. Luciferase signal was read on a Pherastar plate-reader using MARS program. Data was analysed by transforming the data to x=log (X), then plotting log (agonist) vs. response variable slope (4 parameters) to calculate EC50 values.

CD137, sequence (Q07011 24-255): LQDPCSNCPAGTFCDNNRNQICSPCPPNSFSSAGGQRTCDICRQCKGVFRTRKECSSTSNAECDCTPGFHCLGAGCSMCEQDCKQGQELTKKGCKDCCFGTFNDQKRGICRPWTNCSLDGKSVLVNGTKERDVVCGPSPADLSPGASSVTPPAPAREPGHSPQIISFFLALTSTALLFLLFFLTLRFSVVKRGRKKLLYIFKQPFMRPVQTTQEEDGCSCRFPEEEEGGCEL

Molecule | Average Fold EC50 Improvement relative to CD137L | Average Relative Fold Induction relative to CD137L | CD137 agonism / activation in reporter cells (in words) (FIGS. 1 to 3 and 15) | Average fold induction (reference substance of Table 4A / 4B)
CCCC[C@@H]1NC(=O)[C@H](Cc2ccc(O)cc2)NC(=O)[C@@H]2CCCN2C(=O)[C@H](CC(=O)O)NC(=O)[C@H](C)NC(=O)[C@H](Cc2ccccc2)NC(=O)[C@@H]2CSCCC(=O)N3CN(CN(C3)C(=O)CCSC[C@@H](C(=O)N[C@@H](C)C(N)=O)NC1=O)C(=O)CCSC[C@H](NC(=O)[C@H](C)NC(C)=O)C(=O)N[C@@H]([C@@H](C)CC)C(=O)N[C@@H](CCC(=O)O)C(=O)N[C@@H](CCC(=O)O)C(=O)N[C@H](CCCCNC(=O)OCC1C3CCc4nnn(CCOCCOCCOCCOCCOCCOCCOCCOCCOCCOCCNC(=O)CCOCCN(CCOCCC(=O)NCCOCCOCCOCCOCCOCCOCCOCCOCCOCCOCCn5nnc6c5CCC5C(CC6)C5COC(=O)NCCCC[C@H]5NC(=O)[C@H](CCC(=O)O)NC(=O)[C@H](CCC(=O)O)NC(=O)[C@H]([C@@H](C)CC)NC(=O)[C@@H](NC(=O)[C@H](C)NC(C)=O)CSCCC(=O)N6CN7CN(C6)C(=O)CCSC[C@H](NC(=O)[C@H](Cc6ccc(O)cc6)NC(=O)[C@H](CCC(N)=O)NC5=O)C(=O)N[C@@H](Cc5ccccc5)C(=O)N[C@@H](C)C(=O)N[C@@H](CC(=O)O)C(=O)N5CCC[C@H]5C(=O)N[C@@H](Cc5ccc(O)cc5)C(=O)N[C@@H](CCCC)C(=O)N[C@H](C(=O)N[C@@H](C)C(N)=O)CSCCC7=O)CCOCCC(=O)NCCOCCOCCOCCOCCOCCOCCOCCOCCOCCOCCn5nnc6c5CCC5C(CC6)C5COC(=O)NCCCC[C@H]5NC(=O)[C@H](CCC(=O)O)NC(=O)[C@H](CCC(=O)O)NC(=O)[C@H]([C@@H](C)CC)NC(=O)[C@@H](NC(=O)[C@H](C)NC(C)=O)CSCCC(=O)N6CN7CN(C6)C(=O)CCSC[C@H](NC(=O)[C@H](Cc6ccc(O)cc6)NC(=O)[C@H](CCC(N)=O)NC5=O)C(=O)N[C@@H](Cc5ccccc5)C(=O)N[C@@H](C)C(=O)N[C@@H](CC(=O)O)C(=O)N5CCC[C@H]5C(=O)N[C@@H](Cc5ccc(O)cc5)C(=O)N[C@@H](CCCC)C(=O)N[C@H](C(=O)N[C@@H](C)C(N)=O)CSCCC7=O)c4CCC31)C(=O)N[C@@H](CCC(N)=O)C(=O)N[C@@H](Cc1ccc(O)cc1)C(=O)N2 (stereo partly shown) [BCY8102] | 41.27 | 0.91 | – | –
I: Ac-ACIEEGQYCKADPY[Nle]CA-NH2 / II: Ac-ACIEEGQYCKADPY[Nle]CA-NH2 / III: Ac-ACIEEGQYCKADPY[Nle]CA-NH2 (linker I:2-I:9-I:16, II:2-II:9-II:16, III:2-III:9-III:16 via TATA; linker I:10-II:10-III:10 via X3) [BCY8145] | 5.93 | 0.95 | – | –
CCCC[C@@H]1NC(=O)[C@H](Cc2ccc(O)cc2)NC(=O)[C@@H]2CCCN2C(=O)[C@H](CC(=O)O)NC(=O)[C@H](C)NC(=O)[C@H](Cc2ccccc2)NC(=O)[C@@H]2CSCCC(=O)N3CN(CN(C3)C(=O)CCSC[C@@H](C(=O)N[C@@H](C)C(N)=O)NC1=O)C(=O)CCSC[C@H](NC(=O)[C@H](C)NC(C)=O)C(=O)N[C@@H]([C@@H](C)CC)C(=O)N[C@@H](CCC(=O)O)C(=O)N[C@@H](CCCCNC(=O)OCC1C3CCc4nnn(CCOCCOCCOCCOCCOCCOCCOCCOCCOCCOCCNC(=O)CCOCC(COCCC(=O)NCCOCCOCCOCCOCCOCCOCCOCCOCCOCCOCCn5nnc6c5CCC5C(CC6)C5COC(=O)NCCCC[C@@H]5NC(=O)[C@H](CCC(=O)O)NC(=O)[C@H]([C@@H](C)CC)NC(=O)[C@@H](NC(=O)[C@H](C)NC(C)=O)CSCCC(=O)N6CN7CN(C6)C(=O)CCSC[C@H](NC(=O)[C@H](Cc6ccc(O)cc6)NC(=O)[C@H](CCC(N)=O)NC(=O)CNC5=O)C(=O)N[C@@H](Cc5ccccc5)C(=O)N[C@@H](C)C(=O)N[C@@H](CC(=O)O)C(=O)N5CCC[C@H]5C(=O)N[C@@H](Cc5ccc(O)cc5)C(=O)N[C@@H](CCCC)C(=O)N[C@H](C(=O)N[C@@H](C)C(N)=O)CSCCC7=O)(COCCC(=O)NCCOCCOCCOCCOCCOCCOCCOCCOCCOCCOCCn5nnc6c5CCC5C(CC6)C5COC(=O)NCCCC[C@@H]5NC(=O)[C@H](CCC(=O)O)NC(=O)[C@H]([C@@H](C)CC)NC(=O)[C@@H](NC(=O)[C@H](C)NC(C)=O)CSCCC(=O)N6CN7CN(C6)C(=O)CCSC[C@H](NC(=O)[C@H](Cc6ccc(O)cc6)NC(=O)[C@H](CCC(N)=O)NC(=O)CNC5=O)C(=O)N[C@@H](Cc5ccccc5)C(=O)N[C@@H](C)C(=O)N[C@@H](CC(=O)O)C(=O)N5CCC[C@H]5C(=O)N[C@@H](Cc5ccc(O)cc5)C(=O)N[C@@H](CCCC)C(=O)N[C@H](C(=O)N[C@@H](C)C(N)=O)CSCCC7=O)COCCC(=O)NCCOCCOCCOCCOCCOCCOCCOCCOCCOCCOCCn5nnc6c5CCC5C(CC6)C5COC(=O)NCCCC[C@@H]5NC(=O)[C@H](CCC(=O)O)NC(=O)[C@H]([C@@H](C)CC)NC(=O)[C@@H](NC(=O)[C@H](C)NC(C)=O)CSCCC(=O)N6CN7CN(C6)C(=O)CCSC[C@H](NC(=O)[C@H](Cc6ccc(O)cc6)NC(=O)[C@H](CCC(N)=O)NC(=O)CNC5=O)C(=O)N[C@@H](Cc5ccccc5)C(=O)N[C@@H](C)C(=O)N[C@@H](CC(=O)O)C(=O)N5CCC[C@H]5C(=O)N[C@@H](Cc5ccc(O)cc5)C(=O)N[C@@H](CCCC)C(=O)N[C@H](C(=O)N[C@@H](C)C(N)=O)CSCCC7=O)c4CCC31)C(=O)NCC(=O)N[C@@H](CCC(N)=O)C(=O)N[C@@H](Cc1ccc(O)cc1)C(=O)N2 (stereo partly shown) [BCY8150] | 4.14 | 0.77 | – | –
CCCC[C@@H]1NC(=O)[C@H](Cc2ccc(O)cc2)NC(=O)[C@@H]2CCCN2C(=O)[C@H](CC(=O)O)NC(=O)[C@H](C)NC(=O)[C@H](Cc2ccccc2)NC(=O)[C@@H]2CSCCC(=O)N3CN(CN(C3)C(=O)CCSC[C@@H](C(=O)N[C@@H](C)C(N)=O)NC1=O)C(=O)CCSC[C@H](NC(=O)[C@H](C)NC(C)=O)C(=O)N[C@@H]([C@@H](C)CC)C(=O)N[C@@H](CCC(=O)O)C(=O)N[C@@H](CCC(=O)O)C(=O)NCC(=O)N[C@@H](CCCCNC(=O)CCc1cn(CCOCCOCCOCCOCCOCCOCCOCCOCCOCCOCCNC(=O)CCOCC(COCCC(=O)NCCOCCOCCOCCOCCOCCOCCOCCOCCOCCOCCn3cc(CCC(=O)NCCCC[C@@H]4NC(=O)CNC(=O)[C@H](CCC(=O)O)NC(=O)[C@H](CCC(=O)O)NC(=O)[C@H]([C@@H](C)CC)NC(=O)[C@@H](NC(=O)[C@H](C)NC(C)=O)CSCCC(=O)N5CN6CN(C5)C(=O)CCSC[C@H](NC(=O)[C@H](Cc5ccc(O)cc5)NC4=O)C(=O)N[C@@H](Cc4ccccc4)C(=O)N[C@@H](C)C(=O)N[C@@H](CC(=O)O)C(=O)N4CCC[C@H]4C(=O)N[C@@H](Cc4ccc(O)cc4)C(=O)N[C@@H](CCCC)C(=O)N[C@H](C(=O)N[C@@H](C)C(N)=O)CSCCC6=O)nn3)(COCCC(=O)NCCOCCOCCOCCOCCOCCOCCOCCOCCOCCOCCn3cc(CCC(=O)NCCCC[C@@H]4NC(=O)CNC(=O)[C@H](CCC(=O)O)NC(=O)[C@H](CCC(=O)O)NC(=O)[C@H]([C@@H](C)CC)NC(=O)[C@@H](NC(=O)[C@H](C)NC(C)=O)CSCCC(=O)N5CN6CN(C5)C(=O)CCSC[C@H](NC(=O)[C@H](Cc5ccc(O)cc5)NC4=O)C(=O)N[C@@H](Cc4ccccc4)C(=O)N[C@@H](C)C(=O)N[C@@H](CC(=O)O)C(=O)N4CCC[C@H]4C(=O)N[C@@H](Cc4ccc(O)cc4)C(=O)N[C@@H](CCCC)C(=O)N[C@H](C(=O)N[C@@H](C)C(N)=O)CSCCC6=O)nn3)COCCC(=O)NCCOCCOCCOCCOCCOCCOCCOCCOCCOCCOCCn3cc(CCC(=O)NCCCC[C@@H]4NC(=O)CNC(=O)[C@H](CCC(=O)O)NC(=O)[C@H](CCC(=O)O)NC(=O)[C@H]([C@@H](C)CC)NC(=O)[C@@H](NC(=O)[C@H](C)NC(C)=O)CSCCC(=O)N5CN6CN(C5)C(=O)CCSC[C@H](NC(=O)[C@H](Cc5ccc(O)cc5)NC4=O)C(=O)N[C@@H](Cc4ccccc4)C(=O)N[C@@H](C)C(=O)N[C@@H](CC(=O)O)C(=O)N4CCC[C@H]4C(=O)N[C@@H](Cc4ccc(O)cc4)C(=O)N[C@@H](CCCC)C(=O)N[C@H](C(=O)N[C@@H](C)C(N)=O)CSCCC6=O)nn3)nn1)C(=O)N[C@@H](Cc1ccc(O)cc1)C(=O)N2 [BCY7845] | 17.78 | 1.54 | high levels of CD137 agonism | **Average fold induction for BCY7845 = 6.3
